From patent publication US20190351012A1, “TARGETING OF INTERFERON-STIMULATED GENE EXPRESSION TO TREAT INTERFERONOPATHIES” (New York University, priority 2018, published 2019) come the findings set out here.

One test concerns BRD4 recruitment sites. Nature of the test: Global ChIP-Seq for BRD4 recruitment. The test is classed as cell-based, human. Conditions: combined IFN and TSA treatment. The method, then:
To directly assess the effect of IFN and HDAC inhibition on BRD4 recruitment, we assayed the presence of BRD4 at ISG promoters by ChIP. BRD4 was recruited to three typical ISG promoters after 1 h of IFN stimulation. Importantly, this recruitment was abrogated by TSA, and, by JQ-1 (FIG. 5F). We also performed global ChIP-Seq for BRD4 recruitment.
ChIP-Seq libraries were made using the KAPA Hyper Prep kit (Roche, KK8504) using 25 ng of DNA per sample, according to the manufacturer's protocol for end repair and A-tailing. For adapter ligation, 8-nt multiplexing IDT (Integrated DNA Technologies) adapters (5 μM) were used. […] Libraries were sequenced on an Illumina HiSeq 4000 instrument, using a single read 50 protocol; 8 samples were pooled in one lane of a high output single read flow cell. […]
ChIP-Seq data analysis was carried out using the HiC-Bench pipeline (Lazaris et al., 2017, BMC Genomics 18:22). GenomicTools (Tsirigos et al., 2012, Bioinformatics 28:282-283), SAMtools (Li et al., 2009, Bioinformatics 25:2078-2079), DeepTools (Ramirez et al., 2016, Nucleic Acids Res. 44:W160-165), BEDTools (Quinlan and Hall, 2010, Bioinformatics 26:841-842), BigBed Tools (Kent et al., 2010, Bioinformatics 26:2204-2207), Picard Tools (https://broadinstitute.github.io/picard/), and R (https://www.R-project.org/) were used to analyze the sequenced reads and to check the quality of alignment. […]

The test system of test [1] is ISG54 promoter and G6TI control templates. Nature of the test: In vitro transcription run-off assay with nuclear extracts and recombinant ISGF3. The test is classed as biochemical, human. Particulars: TSA included in run-off reaction, naked DNA templates. An excerpt: FIG. 2. […] (A) Nuclear extracts from HEK293T cells expressing activated recombinant ISGF3 (STAT1, STAT2, IRF9 and JAK1) or transfected with vector (Ctl) were programmed with G6TI-CAT (G6TI) or p107 (ISG54) templates. Radiolabeled RNA transcripts were resolved by polyacrylamide-urea gel electrophoresis. Arrow and arrowhead indicate position of the transcripts from G6TI-CAT and p107, respectively. (B) HeLa cells were either left untreated or treated with IFN-α in the absence or presence of TSA (TSA in vivo) before nuclei were isolated for run-on transcription. Where indicated, TSA was added to the elongation reaction in vitro (TSA in vitro). Specific signals from γ-actin, ISG15, ISG56, 6-16, 9-27, IRF9 and GBP transcription were quantified following filter hybridization and normalized to the signal for GAPDH, arbitrarily set to 100. Representative data from three independent experiments are shown. FS2 human diploid fibroblasts were starved for 72 h before being treated with IFN-α for 7.5 h in the absence or presence of TSA. Mononucleosomal DNA fraction was purified from MNase-digested nuclei and analyzed for nucleosome positions by PCR quantitation of protected fragments. All samples were quantified by real-time PCR, except the—53—+1 ISG54 fragment, which was quantified by gel electrophoresis (C). […]

As to `CC(/C=C/C(=O)NO)=C\[C@@H](C)C(=O)c1ccc(N(C)C)cc1` [TSA, Trichostatin A], the “sites of IFN-dependent BRD4 recruitment (366 detected) abrogated” value in the test on BRD4 recruitment sites is reported as “all by 4 of which were abrogated”. In addition, the “inhibition of basal and ISGF3-dependent transcription in vitro” value in test [1] is reported as “neither basal nor ISGF3-dependent transcription was inhibited”.
